# Experimental data taken from patent US20240158446A1, “CYCLIC COMPOUND HAVING SELECTIVE INHIBITORY ACTION ON KRAS OVER HRAS AND NRAS” (CHUGAI SEIYAKU KABUSHIKI KAISHA, priority 2021, published 2024).
# Where a SMILES comes first, the peptide text is derived from it. Bridges are numbered along the chain shown (N, C = ends). [ ]: non-standard residue; d: D form. The star is where a group is joined. hPhe(3-Cl-4-CF3) = N[C@@H](CCc1ccc(C(F)(F)F)c(Cl)c1)C(=O)O; NPrPhe(4-CF3) = CCCN[C@@H](Cc1ccc(C(F)(F)F)cc1)C(=O)O; 3Oxa8azabicyclo(3.2.1)octane = C1CC2COCC1N2*; NMeGly(cPent) = CN[C@H](C(=O)O)C1CCCC1; NMeD = CN[C@@H](CC(=O)O)C(=O)O; NMeL = CN[C@@H](CC(C)C)C(=O)O; NMeA = CN[C@@H](C)C(=O)O; Ac5c = NC1(C(=O)O)CCCC1; Aze = O=C(O)[C@@H]1CCN1; Sar = CNCC(=O)O
# Key:
# [1] = biological target: GDP-bound NRAS wild-type protein (Homo sapiens, UniProt P01111); assay: Binding to NRAS by surface plasmon resonance (SPR), Single Cycle Kinetics; conditions: for NRAS/KRAS (ratio of KD value with respect to GDP-bound NRAS wild-type protein to KD value with respect to KRAS): SPR KD ratio NRAS/KRAS, class symbols; for NRAS/KRAS (ratio of KD value for NRAS to KD value for KRAS) / NRAS/KRAS (ratio of KD value with respect to NRAS to KD value with respect to KRAS): SPR, GDP-bound NRAS wild-type protein vs GDP-bound KRAS wild-type protein
# Chain of GDP-bound NRAS wild-type protein (P01111 whole entry): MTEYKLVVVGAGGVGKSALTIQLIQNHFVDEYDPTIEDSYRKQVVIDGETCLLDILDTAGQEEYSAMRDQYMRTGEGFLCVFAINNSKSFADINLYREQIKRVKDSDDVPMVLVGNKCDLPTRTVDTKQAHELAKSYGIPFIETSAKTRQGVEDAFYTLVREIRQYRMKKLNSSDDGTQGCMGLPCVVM
# [2] = biological target: GDP-bound HRAS wild-type protein (Homo sapiens, UniProt P01112); assay: Binding to HRAS by surface plasmon resonance (SPR), Single Cycle Kinetics; conditions: for HRAS/KRAS (ratio of KD value with respect to GDP-bound HRAS wild-type protein to KD value with respect to KRAS): SPR KD ratio HRAS/KRAS, class symbols; for HRAS/KRAS (ratio of KD value for HRAS to KD value for KRAS) / HRAS/KRAS (ratio of KD value with respect to HRAS to KD value with respect to KRAS): SPR, GDP-bound HRAS wild-type protein vs GDP-bound KRAS wild-type protein
# Chain of GDP-bound HRAS wild-type protein (P01112 whole entry): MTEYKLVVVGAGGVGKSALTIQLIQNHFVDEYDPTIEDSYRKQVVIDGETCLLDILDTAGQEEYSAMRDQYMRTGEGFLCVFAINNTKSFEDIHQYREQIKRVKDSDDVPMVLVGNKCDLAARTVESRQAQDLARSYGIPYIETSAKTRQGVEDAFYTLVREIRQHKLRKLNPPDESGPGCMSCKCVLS
SMILES,NRAS/KRAS (ratio of KD value for NRAS to KD value for KRAS) [1],HRAS/KRAS (ratio of KD value for HRAS to KD value for KRAS) [2],also measured
CCC[C@H]1C(=O)N[C@@H]([C@@H](C)CC)C(=O)N(C)CC(=O)N(C)[C@H]2C/C=C\CCN(C2=O)[C@@H](Cc2ccc(C)cc2)C(=O)N(C)CC(=O)N[C@@H](CCc2cc(Cl)c3sccc3c2)C(=O)N2C[C@H](OCC)C[C@H]2C(=O)NC2(CC(C)(C)C2)C(=O)N(C)[C@@H](C2CCCC2)C(=O)N(C)[C@H](C(=O)N(C)C)CC(=O)N1C [PP2947],,,NRAS/KRAS (ratio of KD value with respect to GDP-bound NRAS wild-type protein to KD value with respect to KRAS) [1]: B (a compound having 3 or more and less than 10 is denoted as B); HRAS/KRAS (ratio of KD value with respect to GDP-bound HRAS wild-type protein to KD value with respect to KRAS) [2]: B (a compound having 3 or more and less than 10 is denoted as B)
CC[C@H](C)[C@@H]1NC(=O)[C@H](CC2CCCC2)N(C)C(=O)C[C@@H](C(=O)N(C)C)N(C)C(=O)[C@H](C2CCCC2)N(C)C(=O)C2(CCC2)NC(=O)[C@@H]2C[C@@H](C(F)(F)F)CN2C(=O)[C@H](CCc2cc(F)c(C(F)(F)F)c(F)c2)NC(=O)CN(C)C(=O)[C@H](Cc2ccc(F)cc2)N2CC/C=C\C[C@@H](C2=O)N(C)C(=O)CN(C)C1=O [PP1508],,,NRAS/KRAS (ratio of KD value for NRAS to KD value for KRAS) ([1]; KD ratio class): A (a compound having 10 or more and less than 20 is denoted as A); HRAS/KRAS (ratio of KD value for HRAS to KD value for KRAS) ([2]; KD ratio class): A (a compound having 10 or more and less than 20 is denoted as A)
CCO[C@@H]1C[C@H]2C(=O)NC3(CCC3)C(=O)N(C)[C@@H](C3CCCC3)C(=O)N(C)[C@H](C(=O)N3CCOCC3)CC(=O)N(C)[C@@H](CC(C)C)C(=O)N[C@@H]([C@@H](C)CC)C(=O)N(C)CC(=O)N(C)[C@H]3CC=C(C)CN(C3=O)[C@@H](Cc3ccc(C(F)(F)F)cc3)C(=O)N(C)CC(=O)N[C@@H](CCc3cc(F)c(C(F)(F)F)c(F)c3)C(=O)N2C1 [PP0826],C (A compound having a KD ratio of 0.1 or more and less than 3 is denoted as C),B (a compound having 3 or more and less than 10 is denoted as B),
CC[C@H](C)[C@@H]1NC(=O)[C@H](CC)N(C)C(=O)C[C@@H](C(=O)N(C)C)N(C)C(=O)[C@H](C2CCCC2)N(C)C(=O)C2(CCC2)NC(=O)[C@@H]2CCN2C(=O)[C@H](CCc2cc(F)c(C(F)(F)F)c(F)c2)NC(=O)CN(C)C(=O)[C@H](Cc2ccc(C(F)(F)F)cc2)N2CCCCC[C@@H](C2=O)N(C)C(=O)CN(C)C1=O [PP0654],,,NRAS/KRAS (ratio of KD value with respect to NRAS to KD value with respect to KRAS) [1]: B (a compound having 3 or more and less than 10 is denoted as B); HRAS/KRAS (ratio of KD value with respect to HRAS to KD value with respect to KRAS) [2]: B (a compound having 3 or more and less than 10 is denoted as B)
CCCN1C(=O)CN(C)C(=O)CN(C)C(=O)[C@H]([C@@H](C)CC)NC(=O)[C@@H]2CCCCCCC[C@@](C)(NC(=O)[C@@H]3C[C@@H](OCC)CN3C(=O)[C@H](CCc3cc(F)c(C(F)(F)F)c(F)c3)NC(=O)CN(C)C(=O)[C@@H]1Cc1ccc(C(F)(F)F)cc1)C(=O)N(C)[C@@H](C1CCCC1)C(=O)N(C)[C@H](C(=O)N1CCOCC1)CC(=O)N2C (stereo in doubt) [PP0898],B (a compound having 3 or more and less than 10 is denoted as B),B (a compound having 3 or more and less than 10 is denoted as B),
CCO[C@@H]1C[C@H]2C(=O)NC3(CCC3)C(=O)N(C)[C@@H](C3CCCC3)C(=O)N(CCC3CCC3)[C@H](C(=O)N3CCOCC3)CC(=O)N(C)[C@@H](CC(C)C)C(=O)N[C@@H]([C@@H](C)CC)C(=O)N(C)CC(=O)N(C)[C@H]3CCCCCN(C3=O)[C@@H](Cc3ccc(C(F)(F)F)cc3)C(=O)N(C)CC(=O)N[C@@H](CCc3cc(F)c(C(F)(F)F)c(F)c3)C(=O)N2C1 [PP0640],,,NRAS/KRAS (ratio of KD value with respect to NRAS to KD value with respect to KRAS) [1]: B (a compound having 3 or more and less than 10 is denoted as B); HRAS/KRAS (ratio of KD value with respect to HRAS to KD value with respect to KRAS) [2]: B (a compound having 3 or more and less than 10 is denoted as B)
CCO[C@@H]1C[C@H]2C(=O)NC3(CC(C)(C)C3)C(=O)N(C)[C@@H](C(CC)CC)C(=O)N(C)[C@H](C(=O)N(C)C)CC(=O)N(C)[C@H]3CC/C=C/c4ccc(cc4)C[C@@H](C(=O)N(C)CC(=O)N[C@@H](CCc4cc(F)c(C(F)(F)F)c(F)c4)C(=O)N2C1)N1CC/C=C\C[C@@H](C1=O)N(C)C(=O)CN(C)C(=O)[C@H]([C@@H](C)CC)NC3=O [PP2586],,,NRAS/KRAS (ratio of KD value with respect to GDP-bound NRAS wild-type protein to KD value with respect to KRAS) [1]: A (a compound having 10 or more and less than 20 is denoted as A); HRAS/KRAS (ratio of KD value with respect to GDP-bound HRAS wild-type protein to KD value with respect to KRAS) [2]: B (a compound having 3 or more and less than 10 is denoted as B)
CCCN1C(=O)[C@@H]2CCN2C(=O)[C@H](C)N(C)C(=O)[C@H]([C@@H](C)CC)NC(=O)[C@H](CC(C)C)N(C)C(=O)C[C@@H](C(=O)N2C3CCC2COC3)N(C)C(=O)[C@H](C2CCCC2)N(C)C(=O)C2(CCCC2)NC(=O)[C@@H]2CCCN2C(=O)[C@H](CCc2ccc(C(F)(F)F)c(Cl)c2)NC(=O)CN(C)C(=O)[C@@H]1Cc1ccc(C(F)(F)F)cc1 [PP0182] ([NMeL]I[NMeA][Aze][NPrPhe(4-CF3)][Sar][hPhe(3-Cl-4-CF3)]P[Ac5c][NMeGly(cPent)][NMeD]-{3Oxa8azabicyclo(3.2.1)octane}; lactam N-11),C (A compound having a KD ratio of 0.1 or more and less than 3 is denoted as C),B (a compound having 3 or more and less than 10 is denoted as B),
CC[C@H](C)[C@@H]1NC(=O)[C@H](CC(C)C)N(C)C(=O)C[C@@H](C(=O)N2CCOCC2)N(C)C(=O)[C@H](C2CCCC2)N(C)C(=O)C2(CCC2)NC(=O)[C@@H]2[C@@H](OCCC(F)(F)F)CCN2C(=O)[C@H](CCc2cc(F)c(C(F)(F)F)c(F)c2)NC(=O)CN(C)C(=O)[C@H](Cc2ccc(C(F)(F)F)cc2)N2CCCCC[C@@H](C2=O)N(C)C(=O)CN(C)C1=O [PP1008],A (a compound having 10 or more and less than 20 is denoted as A),B (a compound having 3 or more and less than 10 is denoted as B),
CC[C@H](C)[C@@H]1NC(=O)[C@H](CC(C)C)N(C)C(=O)C[C@@H](C(=O)N2CCOCC2)N(C)C(=O)[C@H](C2CCCC2)N(C)C(=O)C2(CCC2)NC(=O)[C@@H]2C[C@@H](OCCC(F)(F)F)CN2C(=O)[C@H](CCc2cc(F)c(C(F)(F)F)c(F)c2)NC(=O)CN(C)C(=O)[C@H](Cc2ccc(C(F)(F)F)cc2)N2CCCC[C@@H](C2=O)N(C)C(=O)CN(C)C1=O (stereo in doubt) [PP0998],B (a compound having 3 or more and less than 10 is denoted as B),B (a compound having 3 or more and less than 10 is denoted as B),
CCC[C@H]1C(=O)N[C@@H](C2CCCC2)C(=O)N(C)CC(=O)N(C)[C@H]2C/C=C\CCN(C2=O)[C@@H](Cc2ccc(C)cc2)C(=O)N(C)CC(=O)N[C@@H](CCc2ccc(C(F)(F)F)c(OC)c2)C(=O)N2CC3(CC3)C[C@H]2C(=O)NC2(CC(C)(C)C2)C(=O)N(C)[C@@H](C2CCCC2)C(=O)N(C)[C@H](C(=O)N(C)C)CC(=O)N1C [PP2994],AA (a compound having 20 or more is denoted as AA),A (a compound having 10 or more and less than 20 is denoted as A),
CCO[C@@H]1C[C@H]2C(=O)NC3(CCC3)C(=O)N(C)[C@@H](C3CCCC3)C(=O)N(C)[C@H](C(=O)N3CCOCC3)CC(=O)N(C)[C@@H](CC(C)C)C(=O)N[C@@H]([C@@H](C)CC)C(=O)N(C)CC(=O)N(C)[C@H]3CCCCCN(C3=O)[C@@H](Cc3ccc(F)cc3)C(=O)N(C)CC(=O)N[C@@H](CCc3ccc(C(F)(F)F)c(Cl)c3)C(=O)N2C1 [PP0968],B (a compound having 3 or more and less than 10 is denoted as B),B (a compound having 3 or more and less than 10 is denoted as B),
CC[C@H](C)[C@@H]1NC(=O)[C@H](C2CCC2)N(C)C(=O)C[C@@H](C(=O)N(C)CC)N(C)C(=O)[C@H](C2CCCC2)N(C)C(=O)C2(CCC2)NC(=O)[C@@H]2C[C@H](C)CN2C(=O)[C@H](CCc2cc(F)c(C(F)(F)F)c(F)c2)NC(=O)CN(C)C(=O)[C@H](Cc2ccc(C(F)(F)F)cc2)N2CC/C=C\C[C@@H](C2=O)N(C)C(=O)CN(C)C1=O [PP2082],AA (a compound having 20 or more is denoted as AA),A (a compound having 10 or more and less than 20 is denoted as A),
CCO[C@@H]1C[C@H]2C(=O)NC3(CCC3)C(=O)N(C)[C@@H](C3CCCC3)C(=O)N(C)[C@H](C(=O)N(C)C)CC(=O)N(C)[C@@H](CC)C(=O)N[C@@H]([C@@H](C)CC)C(=O)N3CC[C@@H]3C(=O)N(C)[C@H]3C/C=C\CCN(C3=O)[C@@H](Cc3ccc(C(F)(F)F)cc3)C(=O)N(C)CC(=O)N[C@@H](CCc3cc(F)c(C(F)(F)F)c(F)c3)C(=O)N2C1 [PP1064],A (a compound having 10 or more and less than 20 is denoted as A),A (a compound having 10 or more and less than 20 is denoted as A),
CCCOC[C@H]1C(=O)N[C@@H]([C@@H](C)CC)C(=O)N(C2CC2)CC(=O)N(C)[C@H]2C/C=C\CCN(C2=O)[C@@H](CC2CCC(F)(F)CC2)C(=O)N(C)CC(=O)N[C@@H](CCc2ccc(C(F)(F)F)c(OC)c2)C(=O)N2C[C@H](OCC)C[C@H]2C(=O)N(C)C2(CCC2)C(=O)N(C)[C@@H](C2CCCC2)C(=O)N(C)[C@H](C(=O)N(C)C)CC(=O)N1C [PP2354],A (a compound having 10 or more and less than 20 is denoted as A),A (a compound having 10 or more and less than 20 is denoted as A),
